Experimental data reported in the NIST ThermoML archive (doi:10.1021/je049622g).

Test: xn = mol fraction of the nth substance listed
Conditions: 311 K, Fluid (supercritical or subcritical phases), Pulse-echo method

CCCC [butane] + C
Conditions	speed of sound [m/s]
2068 kPa, x2 = 0.894	381.6
2758 kPa, x2 = 0.894	378.5
3447 kPa, x2 = 0.894	375.5
3930 kPa, x2 = 0.158	760.1
3999 kPa, x2 = 0.158	760.7
4137 kPa, x2 = 0.158	762.3
4137 kPa, x2 = 0.894	372.7
4826 kPa, x2 = 0.158	778.7
4826 kPa, x2 = 0.894	370.1
5516 kPa, x2 = 0.158	793.5
5516 kPa, x2 = 0.894	368
6205 kPa, x2 = 0.158	805.6
6205 kPa, x2 = 0.894	366.4
6895 kPa, x2 = 0.158	817.6
6895 kPa, x2 = 0.894	365.2
7584 kPa, x2 = 0.894	364.8
8274 kPa, x2 = 0.894	365.1
8963 kPa, x2 = 0.894	366
9653 kPa, x2 = 0.894	367.8
10342 kPa, x2 = 0.158	866
10342 kPa, x2 = 0.894	370.3
11032 kPa, x2 = 0.894	373.7
11721 kPa, x2 = 0.894	378
12411 kPa, x2 = 0.894	383.1
13100 kPa, x2 = 0.894	388.9
13128 kPa, x2 = 0.724	314.6
13148 kPa, x2 = 0.724	316.5
13231 kPa, x2 = 0.724	323.7
13307 kPa, x2 = 0.724	329.7
13472 kPa, x2 = 0.724	344
13790 kPa, x2 = 0.158	906.3
13790 kPa, x2 = 0.894	395.6
13845 kPa, x2 = 0.724	366.1
14479 kPa, x2 = 0.724	395.6
14479 kPa, x2 = 0.894	402.9
15168 kPa, x2 = 0.724	420.7
15168 kPa, x2 = 0.894	410.8
15858 kPa, x2 = 0.724	443.6
15858 kPa, x2 = 0.894	419.4
16547 kPa, x2 = 0.724	464.8
16547 kPa, x2 = 0.894	428.4
17237 kPa, x2 = 0.724	484.4
17237 kPa, x2 = 0.894	438
